What was measured:
ducksalad = assay: Test B flooded paddy test; type: in vivo, Heteranthera limosa; conditions: 1000 g ai/ha, scale 0 to 100 (0 no effect, 100 complete control)
Outline: (§1)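 Visual control ratings, 0–100 versus untreated controls, taken after 13 to 15 days in the greenhouse. Blackgrass received a postemergence spray at the 1- to 4-leaf stage (2–18 cm); ducksalad, umbrella sedge and barnyardgrass were flooded-paddy treated at 2 leaves.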

wheat = assay: Test B postemergence herbicide test; type: in vivo, Triticum aestivum; set-up: key to Wheat plant response rating: 0 = no effect, 100 = complete control
Outline: (§2)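 Visual ratings, 0 (no effect) to 100 (complete control), made versus controls after 13–15 d greenhouse. Paddy plants treated at 2-leaf stage; postemergence plants at 1- to 4-leaf stage, 2–18 cm tall.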

giant foxtail = assay: Test B pre-/postemergence herbicide test; type: in vivo, Setaria faberi; conditions: for Plant response rating (0 to 100 scale), Foxtail, Giant: 0 is no effect, 100 is complete control, preemergence
Outline: (§3)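 Plants compared with untreated controls 13–15 days post-treatment and given a visual 0–100 injury score. Applications: preemergence to seeds; postemergence at 1- to 4-leaf (2–18 cm); paddy species flooded, 2-leaf stage. Vehicle non-phytotoxic, surfactant included.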

large crabgrass = assay: Test B pre-/postemergence herbicide test; type: in vivo, Digitaria sanguinalis; conditions: for Plant response rating (0 to 100 scale), Crabgrass, Large: 0 is no effect, 100 is complete control, preemergence
Outline: as §3

corn = assay: Test B pre-/postemergence herbicide test; type: in vivo, Zea mays; conditions: for Plant response rating (0 to 100 scale), Corn: 0 is no effect, 100 is complete control, preemergence
Outline: as §3

cocklebur = assay: Test B pre-/postemergence herbicide test; type: in vivo, Xanthium strumarium; conditions: for Plant response rating (0 to 100 scale), Cocklebur: 0 is no effect, 100 is complete control, preemergence
Outline: (§4)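 Response was scored visually 13 to 15 days after treatment against untreated greenhouse controls, 0 meaning no effect and 100 complete control. Formulations (solvent mixture plus surfactant) went onto soil after planting, onto foliage of 1- to 4-leaf plants, and onto 2-leaf plants in a flooded paddy set including rice and barnyardgrass.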

wild oat = assay: Test B postemergence herbicide test; type: in vivo, Avena fatua
Outline: as §2

[1] = test system: small flower umbrella sedge; assay: Test B flooded paddy test; type: in vivo, Cyperus difformis; conditions: 1000 g ai/ha, scale 0 to 100 (0 no effect, 100 complete control)
Outline: as §1

velvetleaf = assay: Test B pre-/postemergence herbicide test; type: in vivo, Abutilon theophrasti; conditions: for Plant response rating (0 to 100 scale), Velvetleaf: 0 is no effect, 100 is complete control, preemergence
Outline: as §3

pigweed = assay: Test B pre-/postemergence herbicide test; type: in vivo, Amaranthus retroflexus; conditions: for Plant response rating (0 to 100 scale), Pigweed: 0 is no effect, 100 is complete control, preemergence
Outline: as §3

rice = assay: Test B flooded paddy test; type: in vivo, Oryza sativa; conditions: 1000 g ai/ha, scale 0 to 100 (0 no effect, 100 complete control)
Outline: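 Formulated test chemicals went onto postemergence plants measuring 2 to 18 cm, at one to four leaves. For the paddy assay, species had reached two leaves. Scoring took place 13–15 days later by eye, relative to untreated plants, using 0 for no effect up to 100 for full control.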

blackgrass = assay: Test B postemergence herbicide test; type: in vivo, Alopecurus myosuroides
Outline: as §1

barnyardgrass [2] = assay: Test B flooded paddy test; type: in vivo, Echinochloa crus-galli; conditions: 1000 g ai/ha, scale 0 to 100 (0 no effect, 100 complete control)
Outline: as §1

lambsquarters = assay: Test B pre-/postemergence herbicide test; type: in vivo, Chenopodium album; conditions: for Plant response rating (0 to 100 scale), Lambsquarters: 0 is no effect, 100 is complete control, preemergence
Outline: as §3

morningglory = assay: Test B pre-/postemergence herbicide test; type: in vivo, Ipomoea coccinea; conditions: for Plant response rating (0 to 100 scale), Morningglory: 0 is no effect, 100 is complete control, preemergence
Outline: as §4

Surinam grass = assay: Test B pre-/postemergence herbicide test; type: in vivo, Urochloa decumbens; conditions: for Plant response rating (0 to 100 scale), Surinam Grass: 0 is no effect, 100 is complete control, preemergence
Outline: as §3

barnyardgrass [3] = assay: Test B pre-/postemergence herbicide test; type: in vivo, Echinochloa crus-galli; conditions: for Plant response rating (0 to 100 scale), Barnyardgrass: 0 is no effect, 100 is complete control, preemergence; for Barnyardgrass plant response rating: Postemergence, scale 0 (no effect) to 100 (complete control)
Outline: as §4

[4] = 500 g ai/ha, scale 0 to 100, 0 no effect, 100 complete control, preemergence
[5] = Postemergence, 500 g ai/ha, scale 0 (no effect) to 100 (complete control)
[6] = postemergence, 125 g ai/ha, scale 0 to 100

CCNC(=O)c1cncc(NC(=O)c2nn(C(C)(C)C)nc2C)c1 [Compound 427]
10: Foxtail, Giant plant response rating (giant foxtail; [5]) | Cocklebur plant response rating (cocklebur; [5]) | Cocklebur plant response rating (cocklebur; [6]) | Velvetleaf plant response rating (velvetleaf; [6]) | Plant response rating (0 to 100 scale), Lambsquarters (lambsquarters; 125 g ai/ha) | Lambsquarters plant response rating (lambsquarters; [6]) | Surinam Grass plant response rating (Surinam grass; [5])
40: Pigweed plant response rating (pigweed; [5]) | Lambsquarters plant response rating (lambsquarters; [5])
30: Crabgrass, Large plant response rating (large crabgrass; [5]) | Velvetleaf plant response rating (velvetleaf; [5]) | Plant response rating (0 to 100 scale), Pigweed (pigweed; 125 g ai/ha) | Morningglory plant response rating (morningglory; [5])
20: Pigweed plant response rating (pigweed; [6]) | Blackgrass plant response rating (blackgrass; [5]) | Morningglory plant response rating (morningglory; [6])
0: Ducksalad plant response rating (ducksalad) | Wheat plant response rating (wheat; [4]) | Wheat plant response rating (wheat; [5]) | Wheat plant response rating (wheat; [6]) | Plant response rating (0 to 100 scale), Foxtail, Giant (giant foxtail; 125 g ai/ha) | Foxtail, Giant plant response rating (giant foxtail; [6]) | Plant response rating (0 to 100 scale), Crabgrass, Large (large crabgrass; 125 g ai/ha) | Crabgrass, Large plant response rating (large crabgrass; [6]) | Plant response rating (0 to 100 scale), Corn (corn; 125 g ai/ha) | Corn plant response rating (corn; [5]) | Corn plant response rating (corn; [6]) | Plant response rating (0 to 100 scale), Cocklebur (cocklebur; 125 g ai/ha) | Oat, Wild plant response rating (wild oat; [5]) | Oat, Wild plant response rating (wild oat; [6]) | Sedge, Umbrella plant response rating [1] | Plant response rating (0 to 100 scale), Velvetleaf (velvetleaf; 125 g ai/ha) | Rice plant response rating (rice) | Blackgrass plant response rating (blackgrass; [6]) | Barnyardgrass plant response rating (barnyardgrass [2]) | Plant response rating (0 to 100 scale), Morningglory (morningglory; 125 g ai/ha) | Plant response rating (0 to 100 scale), Surinam Grass (Surinam grass; 125 g ai/ha) | Surinam Grass plant response rating (Surinam grass; [6]) | Plant response rating (0 to 100 scale), Barnyardgrass (barnyardgrass [3]; 125 g ai/ha) | Barnyardgrass plant response rating (barnyardgrass [3]; 125 g ai/ha) | Barnyardgrass plant response rating (barnyardgrass [3]; 500 g ai/ha)

CCN(CC)C(=O)c1cncc(NC(=O)c2nn(C(C)(C)C)nc2C)c1 [Compound 428]
20: Crabgrass, Large plant response rating (large crabgrass; [5]) | Velvetleaf plant response rating (velvetleaf; [5]) | Pigweed plant response rating (pigweed; [6]) | Morningglory plant response rating (morningglory; [6]) | Surinam Grass plant response rating (Surinam grass; [5])
10: Foxtail, Giant plant response rating (giant foxtail; [5]) | Foxtail, Giant plant response rating (giant foxtail; [6]) | Crabgrass, Large plant response rating (large crabgrass; [6]) | Corn plant response rating (corn; [5]) | Cocklebur plant response rating (cocklebur; [5]) | Velvetleaf plant response rating (velvetleaf; [6]) | Lambsquarters plant response rating (lambsquarters; [6]) | Surinam Grass plant response rating (Surinam grass; [6]) | Barnyardgrass plant response rating (barnyardgrass [3]; 500 g ai/ha)
30: Plant response rating (0 to 100 scale), Pigweed (pigweed; 125 g ai/ha) | Pigweed plant response rating (pigweed; [5]) | Rice plant response rating (rice) | Morningglory plant response rating (morningglory; [5])
40: Lambsquarters plant response rating (lambsquarters; [5])
0: Ducksalad plant response rating (ducksalad) | Wheat plant response rating (wheat; [4]) | Wheat plant response rating (wheat; [5]) | Wheat plant response rating (wheat; [6]) | Plant response rating (0 to 100 scale), Foxtail, Giant (giant foxtail; 125 g ai/ha) | Plant response rating (0 to 100 scale), Crabgrass, Large (large crabgrass; 125 g ai/ha) | Plant response rating (0 to 100 scale), Corn (corn; 125 g ai/ha) | Corn plant response rating (corn; [6]) | Plant response rating (0 to 100 scale), Cocklebur (cocklebur; 125 g ai/ha) | Cocklebur plant response rating (cocklebur; [6]) | Oat, Wild plant response rating (wild oat; [5]) | Oat, Wild plant response rating (wild oat; [6]) | Sedge, Umbrella plant response rating [1] | Plant response rating (0 to 100 scale), Velvetleaf (velvetleaf; 125 g ai/ha) | Blackgrass plant response rating (blackgrass; [5]) | Blackgrass plant response rating (blackgrass; [6]) | Barnyardgrass plant response rating (barnyardgrass [2]) | Plant response rating (0 to 100 scale), Lambsquarters (lambsquarters; 125 g ai/ha) | Plant response rating (0 to 100 scale), Morningglory (morningglory; 125 g ai/ha) | Plant response rating (0 to 100 scale), Surinam Grass (Surinam grass; 125 g ai/ha) | Plant response rating (0 to 100 scale), Barnyardgrass (barnyardgrass [3]; 125 g ai/ha) | Barnyardgrass plant response rating (barnyardgrass [3]; 125 g ai/ha)
